# Measurements published in patent publication US20200030263A1, “METHODS AND COMPOSITIONS FOR PROMOTING WOUND HEALING WITH DECREASED SCAR FORMATION AFTER GLAUCOMA FILTRATION SURGERY” (United States Government as Represented by the Department …, priority 2017, published 2020).
# Assays:
# [1] = test system: corneal haze in rabbits produced with −9.0 diopter PRK; test: Corneal haze after −9.0 diopter PRK in rabbits: efficacy (slit-lamp haze score, αSMA immunofluorescence); type: in vivo, rabbit; details: for Haze score: at 4-months after PRK, Fantes scale, single topical SAHA 25 μM 5 min or MMC 0.02% 1 min, BSS 2.7±0.4; for post-PRK corneal haze compared to no-drug treated corneas: single topical application, p<0.001
# From the text: Photorefractive keratectomy was used to produce corneal haze in rabbits by performing −9.0 diopter ablation with the Summit Apex excimer laser (Model: SVS APEX Plus ER; Alcon, Ft. Worth, Tex.) as reported previously. Briefly, the rabbits were anesthetized and local anesthesia of the cornea was achieved through the application of topical ophthalmic 0.5% proparacaine hydrochloride (Alcon, Fort Worth, Tex.). A wire lid speculum was placed and corneal epithelium was removed by gentle scraping with surgical Beaver blade #64 (BD Biosciences, Franklin Lakes, N.J.). […] Only one eye of each animal was used for experimentation.
# A 10 mM stock solution of SAHA (Cayman Chemical Company, Ann Arbor, Mich., USA) was prepared using dimethyl sulfoxide (DMSO), and diluted to 25 μM with balanced salt solution (BSS) eye drops (Alcon). For vehicle control, the same volume of DMSO was diluted with BSS. […] After PRK, rabbits were divided into 3 groups: Group-1 received a single topical application of SAHA (25 μM) for 5 minutes (n=15), Group-2 received a single topical application of MMC (0.02%) for 1 minute (n=15) and Group-3 received a single topical application of vehicle for 5 minutes (n=15). Thereafter, eyes were washed profusely with BSS. The contralateral eye served as naive control. All rabbits received clinical eye examination.
# Rabbits from each group were euthanatized 3-days (n=3), 1-month (n=6), and 4-months (n=6) after PRK. Corneas were snap frozen, sectioned (7 mm), and stored at −80° C. Immunofluorescence was used to detect myofibroblast marker αSMA using monoclonal antibody (M0851; Dako, Calif.). […] Sections were viewed and photographed under a fluorescence microscope (Leica, Deerfield, Ill.) equipped with a digital camera system (SpotCam RT KE; Diagnostic Instruments, MI).
# [2] = test system: rabbit corneal endothelial cells and keratocytes after −9D PRK; test: Rabbit PRK model: in vivo safety (specular microscopy, DAPI, TUNEL)
# Procedure: Briefly, corneal haze in rabbits was produced with −9.0 diopter PRK. A single application of SAHA (25 μM) or MMC (0.02%) was applied topically immediately after PRK. Effects of the two drugs were analyzed by slit-lamp microscope, specular microscope, TUNEL assay, and immunofluorescence.
# (§1) A 10 mM stock solution of SAHA (Cayman Chemical Company, Ann Arbor, Mich., USA) was prepared using dimethyl sulfoxide (DMSO), and diluted to 25 μM with balanced salt solution (BSS) eye drops (Alcon). For vehicle control, the same volume of DMSO was diluted with BSS. The 0.02% Mitomycin C solution was prepared at the Harry S. Truman VA Hospital Pharmacy, Columbia, Mo. using 5 mg/ml powder (Accord Healthcare, Inc., Durham, N.C., USA) diluted with sterile normal saline. This solution was stable for 1 week at room temperature but was used within 48 hours after preparation. After PRK, rabbits were divided into 3 groups: Group-1 received a single topical application of SAHA (25 μM) for 5 minutes (n=15), Group-2 received a single topical application of MMC (0.02%) for 1 minute (n=15) and Group-3 received a single topical application of vehicle for 5 minutes (n=15). Thereafter, eyes were washed profusely with BSS. The contralateral eye served as naive control. All rabbits received clinical eye examination.
# Slit-lamp (SL15, Kowa, Japan), stereo (MZ16F, Leica, Switzerland) and specular (NSP-8800, Konan, Japan) microscopes were used to evaluate ocular health, corneal haze, and corneal endothelial cells in anesthetized animals. Grading of clinical corneal haze was done using Fantes scale by three researchers (AS, MW and SG) in a masked manner. High performance digital imaging system (VK2; Kowa Tokyo, Japan) was used for corneal image analysis.
# Rabbits from each group were euthanatized 3-days (n=3), 1-month (n=6), and 4-months (n=6) after PRK. Corneas were snap frozen, sectioned ([…]), and stored at −80° C. Immunofluorescence was used to detect myofibroblast marker αSMA using monoclonal antibody (M0851; Dako, Calif.). TUNEL assay (ApopTag, 57165; Billerica, Mass.) detected apoptosis and DAPI-stained nuclei determined cellular density. Sections were viewed and photographed under a fluorescence microscope (Leica, Deerfield, Ill.) equipped with a digital camera system (SpotCam RT KE; Diagnostic Instruments, MI).
# Stained proteins in corneal sections were quantified using Image J software in six randomly selected areas. Standard error means were calculated. One-way ANOVA and Wilcoxon rank sum test were used for statistical analysis. The p value <0.05 was considered significant.
# [3] = Stability of 0.02% Mitomycin C solution; type: physicochemical; details: 0.02% solution in sterile normal saline, room temperature
# Procedure: as §1
# [4] = test system: human corneal endothelial cells; details: cited from earlier work
# [5] = test system: site of sclerotomy in rabbit eyes after glaucoma filtration surgery; type: in vivo; details: for DAPI nuclear staining of conjunctival epithelium at site of sclerostomy: rabbit, in vivo
# Procedure: (§2) Briefly, a rabbit model of glaucoma filtration surgery (GFS) was used. Rabbits underwent GFS received Balanced Salt Solution (BSS) or SAHA (50 μM) or mitomycin C (MMC; 0.04% (w/v)). Clinical scores of intraocular pressure (TOP), bleb vascularity and slit lamp examination were performed. On postoperative day 14, rabbits were sacrificed and the bleb tissues were collected for evaluation of tissue fibrosis with H&E, Masson trichrome (MT), α-smooth muscle actin (α-SMA), and F-actin staining. Further, SAHA-mediated acetylation of histones in corneal fibroblasts and conjunctiva were determined by western blot analysis.
# On postoperative day 14, rabbits were humanely euthanized with pentobarbital (150 mg/kg) under general anesthesia. The eyes were enucleated together with the conjunctiva to preserve the bleb and snap frozen in optimal cutting temperature fluid. The tissues were sectioned and stained with hematoxylin and eosin. Masson's trichrome staining was performed to stain collagen. Immunofluorescence staining for f-actin (a marker for activated fibroblasts and myofibroblasts) was performed using Alexa Fluor® 594-conjugated phalloidin (1:40 dilution, A12381, Invitrogen Inc., Carlsbad, Calif.). Immunofluorescence staining for α-smooth muscle actin (αSMA), a marker for myofibroblasts, was performed with mouse monoclonal primary αSMA antibody (1:100 dilution, M0851; Dako, Carpinteria, Calif.). Tissue sections were incubated with 2% bovine serum albumin for 30 minutes at room temperature and then with αSMA monoclonal antibody for 90 minutes. For detection of the primary antibody, the sections were exposed to Alexa 488 goat anti-mouse IgG secondary antibody (1:500 dilution, A11001; Invitrogen Inc.) for 1 hour. The tissue sections at the site of sclerotomy and the sections on every sixth tissue slide on the either side of the sclerotomy were stained for f-actin and αSMA. After completion of immunostaining, tissue sections were mounted in medium containing DAPI (Vectashield; Vector Laboratories, Inc. Burlingame, Calif.), viewed, and photographed under a fluorescence microscope (Leica, Deerfield, Ill.) equipped with a digital camera system (SpotCam RT KE; Diagnostic Instruments, Sterling, Mich.). The stained areas in the imaged slides were quantified using Image J software.
# (§3) The results are expressed as mean±SEM. The data for bleb length, area, vascularity and IOP were analyzed by two way ANOVA and Bonferroni test using GraphPad Prism 6.0 (GraphPad Software, Inc., La Jolla, Calif.) and p<0.05 was considered to be statistical significant. The immunostaining data was analyzed using a t-test.
# [6] = test system: rabbit model of glaucoma filtration surgery; test: Rabbit model of glaucoma filtration surgery (GFS): clinical evaluation of bleb, vascularity, IOP and tolerability; type: in vivo; details: for bleb appearance (biomicroscopy): day 3, 7, 14 after GFS, compared to flat and scarred blebs in no treatment control; for bleb area compared to untreated controls / bleb length compared to untreated controls: day 3, 7 and 14 after GFS; for bleb area compared to untreated controls: SAHA p<0.05, MMC p<0.01; for bleb length compared to untreated controls: p<0.001; for bleb vascularity score / intraocular pressure: day 7 and day 14 after GFS; for bleb vascularity score: versus no treatment control; for intraocular pressure: versus no-treatment control
# Procedure: as §2
# A 10 mM stock solution of SAHA (Cayman Chemical Company, Ann Arbor, Mich., USA) was prepared by dissolving in dimethyl sulfoxide (DMSO) and then further diluted to 50 μM with balanced salt solution (BSS) eye drops (Alcon). For vehicle control, the same volume of DMSO was diluted with BSS. The 0.04% MMC stock solution was prepared in BSS and 0.02% final dose of MMC was given to rabbits. The rabbits were divided into three treatment groups. Groups I rabbits received 100 μl subconjunctival injection of vehicle 30 minutes before the GFS surgery and group II rabbits received 100 μl subconjunctival injection of 50 μM SAHA solution 30 minutes before GFS. Group III rabbits were injected with 100 μl subconjunctival solution of 0.02% MMC 30 minutes before surgery.
# Clinical evaluation was performed to check the intraocular pressure (TOP), general appearance and vascularity of the bleb. All these clinical parameters were recorded before the surgery to obtain the baseline values and on days 3, 5, 7, 10 and 14 after surgery. To measure TOP, tonometry was performed using an applanation tonometer (Tono-pen) with animals under topical anesthesia. Bleb's size was graded by measuring its width and length. Bleb vascularity was graded as 0=avascular; 1=normal vascularity; 2=hyperemic; 3=very hyperemic. Anterior chamber inflammation was assessed by slit lamp examination and graded 0=no inflammation; 1=cells present; 2=fibrin formation; 3=hypopyon present.
# as §3
# [7] = test system: acetylation of Histone H3 and H4 in rabbit conjunctiva tissue; test: Western blot of acetylated histones in rabbit conjunctiva after subconjunctival injection; type: in vivo; details: 100 μl subconjunctival 50 μM SAHA
# Procedure: (§4) Rabbits were received 100 μl subconjunctival injection of 50 μM SAHA. Cell lysates were prepared from human corneal fibroblast cells treated with SAHA (2.5 μM) at 0, 2, 4, 6, 16 and 24 hours. Rabbit conjunctival tissues were harvested at 0, 2, 6 and 24 hour time points. Cell and tissue lysates were analyzed by western blotting using anti-acetyl Histone H3, anti-acetyl histone H4 (Cell Signaling, Beverly, Mass., USA) and (3-actin (Santa Cruz biotechnology Inc., Dallas, Tex., USA) antibodies respectively. All western blots for each protein were used 3 rabbit tissues and repeated at least two times. Digital quantification of western blots was performed using NIH Image J software and Image Studio software Version 5.2
# [8] = test system: acetylation of Histone H3 and H4 in human corneal fibroblast cells; test: Western blot of acetylated histones in human corneal fibroblast cells; type: cell-based; details: SAHA 2.5 μM
# Procedure: as §4
# [9] = in vivo; cited from earlier work
# [10] = test system: cultured corneal fibroblasts; details: 50 μM or higher dose of SAHA; earlier studies; cited from earlier work
# [11] = test system: cultured rabbit, equine, canine and human corneal fibroblasts; details: previous studies from the lab; cited from earlier work
# [12] = prophylactic MMC 0.02%, 10-50 seconds, nonrandomized controlled trial
# [13] = day 14 after GFS, versus no-treatment control
smiles,measurement,setting,value
"CO[C@@]12[C@H](COC(N)=O)C3=C(C(=O)C(C)=C(N)C3=O)N1C[C@@H]1N[C@@H]12 [MMC, mitomycin C]",Haze score,[1],0.85±0.15
same,post-PRK corneal haze compared to no-drug treated corneas,[1],significantly decreased
same,corneal endothelial cell phenotype and density,[2]; 1-month after PRK,significantly compromised endothelial cell phenotype and density
same,apoptosis (TUNEL+ cells in stroma and endothelium),[2]; 1-month and 4-months,many TUNEL+ cells in the stroma and endothelium
same,keratocyte number and density in stroma (DAPI-staining),[2]; 1-month and 4-months post-PRK,significant keratocyte loss
same,corneal endothelial cell phenotype and density,[2]; 4-months after PRK,still had compromised endothelial cells
same,apoptosis (TUNEL assay),[2]; corneas collected at 3-days,significant apoptosis in epithelial and keratocyte cells
same,stability of solution,[3],1 week
same,qualitative morphometric parameters or quantitative endothelial cell density,"[4]; 0.02% MMC topically for 12 seconds and 40 seconds following PRK, other studies",did not have a significant effect
same,corneal endothelial cells,[4]; [12],significant loss of corneal endothelial cells
same,haze formation after PRK,[4]; [12],inhibited haze formation
same,f-actin stained area (activated fibroblasts and myofibroblasts),[5]; [13],very robust decrease
same,αSMA stained area (myofibroblasts),[5]; [13],very robust decrease
same,DAPI nuclear staining of conjunctival epithelium at site of sclerostomy,[5],discontinuous and highly sparse DAPI nuclear staining
same,bleb appearance (biomicroscopy),[6],"elevated blebs but these blebs had a thin, avascular and cystic appearance"
same,bleb area compared to untreated controls,[6],significantly higher
same,bleb length compared to untreated controls,[6],significantly higher
same,bleb vascularity score,[6],very robust decrease
same,intraocular pressure,[6],lower TOP compared to the no-treatment control eyes but the results were not statistically significant
same,bleb vascularity by day 14,[6]; day 14 after GFS,completely avascular
same,ocular adverse findings on clinical evaluation,"[6]; rabbit eyes after GFS, SAHA 50 μM or MMC 0.02% subconjunctival",corneal neovascularization and opacity
"O=C(CCCCCCC(=O)Nc1ccccc1)NO [SAHA, suberoylanilide hydroxamic acid]",Haze score,[1],0.9±0.1
same,post-PRK corneal haze compared to no-drug treated corneas,[1],significantly decreased
same,apoptosis (TUNEL assay),"[2]; rabbit, in vivo",did not induce apoptosis in any cell type
same,keratocyte number and density in stroma (DAPI-staining),"[2]; rabbit, in vivo",did not reduce number or density of keratocytes
same,time of maximum histone H3 and H4 acetylation,[7],6 h
same,acetylation status of histone H3 and H4,"[7]; 0, 2, 6 and 24 hour",increase the acetylation status of histone H3 and H4
same,time of maximum histone H3 and H4 acetylation,[8],6 h
same,acetylation status of histone H3 and H4,"[8]; 0, 2, 4, 6, 16 and 24 hours",increase the acetylation status of histone H3 and H4
same,plasma half-life,[9],short
same,cellular viability of cultured corneal fibroblasts,[10],did not decrease cellular viability
same,differentiation of corneal fibroblasts to myofibroblasts,[11],capable of inhibiting differentiation
same,Masson trichrome staining: collagen deposits at site of sclerotomy,[5]; [13],less collagen deposits
same,f-actin stained area (activated fibroblasts and myofibroblasts),[5]; [13],significant decrease
same,αSMA stained area (myofibroblasts),[5]; [13],significant decrease
same,H&E staining: fibrous deposit at site of sclerotomy,"[5]; day 14 after GFS, control densely packed with fibrous tissue",mild fibrous deposit and a loosely arranged conjunctival tissue
same,DAPI nuclear staining of conjunctival epithelium at site of sclerostomy,[5],continuous and uniform conjunctival epithelium
same,bleb appearance (biomicroscopy),[6],transparent and elevated blebs
same,bleb area compared to untreated controls,[6],significantly higher
same,bleb length compared to untreated controls,[6],significantly higher
same,bleb vascularity score,[6],significantly (p<0.01) attenuated
same,intraocular pressure,[6],lower TOP compared to the no-treatment control eyes but the results were not statistically significant
